Laboratory results: article PMC3440086, “Profiling Environmental Chemicals for Activity in the Antioxidant Response Element Signaling Pathway Using a High Throughput Screening Approach” (Environmental Health Perspectives, 2012)
Counter-ions that a name gives are not always drawn. Like-named read-outs stand apart in the source and are kept apart here. Each block holds one molecule with its values, some of them ahead of it.

Experiments:
mutated ARE = assay type: cell-based
[1] = system: Nrf2-dependent ARE transcriptional activity; experiment: ARE-luc luciferase reporter gene assay in HepG2 cells (qHTS); assay type: cell-based; parameters: Emax: reference not given here
[2] = system: antioxidant response element (ARE) signaling pathway; experiment: ARE-bla β-lactamase reporter gene assay in HepG2 cells (qHTS); assay type: cell-based, human
[3] = confirmation/follow-up studies, HepG2, mean ± SD
[4] = confirmation/follow-up studies, HepG2, 16 hr exposure, mean ± SD, read-out: ARE-luc EC50
[5] = confirmation/follow-up studies, activation of ARE reporter as % of positive control (β-napthoflavone)
[6] = primary qHTS screening, 0.59 nM to 92 µM
[7] = confirmation/follow-up studies, HepG2, 16 hr exposure, mean ± SD, read-out: ARE-bla EC50
[8] = confirmation/follow-up studies, […]
[9] = Homo sapiens, HepG2, confirmation/follow-up studies, activation of ARE reporter as % of positive control (β-napthoflavone), read-out: ARE-luc Efficacy
[10] = Homo sapiens, confirmation/follow-up studies, HepG2, 16 hr exposure, mean ± SD, read-out: ARE-luc EC50
[11] = Homo sapiens, HepG2, confirmation/follow-up studies, activation of ARE reporter as % of positive control (β-napthoflavone), read-out: ARE-bla Efficacy
[12] = Homo sapiens, confirmation/follow-up studies, HepG2, 16 hr exposure, mean ± SD, read-out: ARE-bla EC50
[13] = confirmation/follow-up studies, HepG2, 16 hr exposure, mean ± SD
[14] = Homo sapiens, HepG2, 16 h, read-out: ARE-bla EC50
[15] = Homo sapiens, HepG2, read-out: ARE-bla Efficacy

SMILES: Clc1ccc(C(c2ccc(Cl)cc2)C(Cl)Cl)cc1 [Rhothane (TDE), Tetrachlorodiphenylethane]
ARE-bla mutant IC50 (mutated ARE; [3]): inactive
EC50 [1, 4]: 13.5 ± 3.3 µM
ARE-luc Efficacy [1, 5]: 32%
activity in ARE-luc assay (words) ([1]; follow-up studies, up to 46 µM): active
activity in ARE-luc assay (words) [1, 6]: inactive
EC50 [2, 7]: 16.4 ± 7.3 µM
ARE-bla Efficacy [2, 5]: 43%

SMILES: Nc1ccc(N)c(Cl)c1.O=S(=O)(O)O [2-Chloro-p-phenylenediamine SO4]
ARE-bla mutant IC50 (mutated ARE; [3]): inactive
EC50 [1, 4]: 26.5 ± 6 µM
ARE-luc Efficacy [1, 8]: 83%
EC50 [2, 7]: 17.1 ± 4.1 µM
ARE-bla Efficacy [2, 8]: 72%

SMILES: C[S@@+]([O-])CCCCN=C=S [L-sulforaphane]
activity in ARE-luc assay (words) [1, 6]: active
activity in ARE-bla assay (words) [2, 6]: active

SMILES: O=C(O)C1C(C(=O)O)C2(Cl)C(Cl)=C(Cl)C1(Cl)C2(Cl)Cl (stereo not drawn) [Chlorendic acid]
ARE-bla mutant IC50 (mutated ARE): inactive
ARE-luc EC50 [1]: inactive
ARE-bla EC50 [2]: inactive

EC50 ([1]; primary screening, positive control across all 18 plates, read-out: average EC50 in ARE-luc assay): 5.2 µM
EC50 ([2]; primary screening, positive control across all 18 plates, read-out: average EC50 in ARE-bla assay): 2.1 µM
SMILES: O=c1cc(-c2ccccc2)oc2ccc3ccccc3c12 [β-Napthoflavone, reference compound]

SMILES: O=Nc1ccc(Nc2ccccc2)cc1 [p-Nitrosodiphenylamine]
ARE-bla mutant IC50 (mutated ARE): inactive
ARE-luc Efficacy [1]: 71
EC50 ([1]; read-out: ARE-luc EC50): 21.7 ± 3.7 µM
ARE-bla Efficacy [2]: 31
EC50 ([2]; read-out: ARE-bla EC50): 9.7 ± 4.1 µM

SMILES: Cc1ccc(O)c(N)c1 [2-Amino-4-methylphenol]
ARE-bla mutant IC50 (mutated ARE; [3]): inactive
Emax [1, 9]: 90%
EC50 [1, 10]: 24 ± 7.1 µM
Emax [2, 11]: 76%
EC50 [2, 12]: 12 ± 4.8 µM

SMILES: c1ccc2c(c1)-c1cccc3cccc-2c13 [Fluoranthene]
ARE-bla mutant IC50 (mutated ARE): inactive
ARE-luc EC50 [1]: inactive
ARE-bla EC50 [2]: inactive

SMILES: NC(=S)Nc1ccccc1 [Phenylthiourea]
ARE-bla mutant IC50 (mutated ARE; [3]): inactive
ARE-luc EC50 [1, 13]: inactive
ARE-bla EC50 [2, 13]: inactive

SMILES: Nc1ccccc1O [o-Aminophenol]
ARE-bla mutant IC50 (mutated ARE): inactive
EC50 ([1]; Homo sapiens, HepG2, 16 h, read-out: ARE-luc EC50): 26.2 ± 3.3 µM
Emax ([1]; Homo sapiens, HepG2, read-out: ARE-luc Efficacy): 234%
EC50 [2, 14]: 6.8 ± 4.1 µM
Emax [2, 15]: 95%

SMILES: CCN(CC)c1ccc(N)cc1 [N,N-Diethyl-p-phenylenediamine]
ARE-bla mutant IC50 (mutated ARE; [3]): inactive
ARE-luc EC50 [1, 13]: inactive
EC50 [2, 7]: 18.7 ± 7.6 µM
ARE-bla Efficacy [2, 8]: 60%

SMILES: CN(C)C(=S)SSC(=S)N(C)C [Tetramethylthiuram disulfide]
ARE-bla mutant IC50 (mutated ARE; [3]): inactive
EC50 [1, 4]: 30.6 ± 5.2 µM
ARE-luc Efficacy [1, 8]: 265%
EC50 [2, 7]: 17.2 ± 4.9 µM
ARE-bla Efficacy [2, 8]: 35%

SMILES: CNc1ccc(O)cc1 [N-Methyl-p-aminophenol sulfate]
ARE-bla mutant IC50 (mutated ARE): inactive
Emax [1, 9]: 202%
EC50 [1, 10]: 24.6 ± 9.2 µM
Emax [2, 11]: 37%
EC50 [2, 12]: 13.6 ± 3.2 µM

SMILES: CC(C)CC(C)Nc1ccc(Nc2ccccc2)cc1 (stereo not drawn) [n-(1,3-Dimethylbutyl)-n`-phenyl-p-phenylenediamine]
ARE-bla mutant IC50 (mutated ARE; [3]): inactive
activity in ARE-luc assay (words) ([1]; follow-up studies, up to 46 µM): inactive
activity in ARE-luc assay (words) [1, 6]: active
Emax [2, 11]: 89%
EC50 [2, 12]: 17.3 ± 5 µM

SMILES: O=c1n(CC2CO2)c(=O)n(CC2CO2)c(=O)n1CC1CO1 (stereo not drawn) [Teroxironum]
ARE-bla mutant IC50 (mutated ARE): inactive
ARE-luc Efficacy [1]: 1541
EC50 ([1]; read-out: ARE-luc EC50): 27.1 ± 1.8 µM
ARE-bla Efficacy [2]: 119
EC50 ([2]; read-out: ARE-bla EC50): 5.9 ± 1.9 µM

SMILES: c1ccc2c(c1)-c1cccc3c1c-2cc1ccccc13 [Benzo(b)fluoranthene]
activity in ARE-bla-mut assay (words) (mutated ARE): may exhibit autofluorescence
ARE-bla mutant Efficacy (mutated ARE; confirmation/follow-up studies, normalized to DMSO (0%) and ARE-bla maximal β-napthoflavone response (100%)): 134%
Emax ([1]; Homo sapiens, HepG2, confirmation/follow-up studies, […], read-out: ARE-luc Efficacy): 19%
EC50 [1, 10]: 1.3 ± 1 µM
Emax ([2]; Homo sapiens, HepG2, confirmation/follow-up studies, […], read-out: ARE-bla Efficacy): 136%
EC50 [2, 12]: 5.9 ± 3 µM

SMILES: C=CC(=O)OCCOCCOCCOCCOC(=O)C=C [Tetraethylene glycol diacrylate]
ARE-bla mutant IC50 (mutated ARE; [3]): inactive
Emax [1, 9]: 288%
EC50 [1, 10]: 29.2 ± 2 µM
Emax [2, 11]: 53%
EC50 [2, 12]: 9.5 ± 4.8 µM

SMILES: CC(C)Nc1ccc(Nc2ccccc2)cc1 [N-Isopropyl-N'-phenyl-p-phenylenediamine]
ARE-bla mutant IC50 (mutated ARE): inactive
EC50 [2, 14]: 13.1 ± 8.9 µM
Emax [2, 15]: 71%
